Key:
NCI-H1048 cells = experiment: Cell growth inhibition, SCLC cell line NCI-H1048 (cell count, day 11); type: cell-based, human; conditions: Homo sapiens, 264 h; NCI-H1048, day 11, cell count; read-out: H1048 GI50
From the text: (§1) Among other things, provided technologies are useful for treating various diseases, disorders, or conditions. For example, in some embodiments, provided technologies are useful for treating cancer as confirmed in the present Example. […] In some embodiments, provided technologies can inhibit cell proliferation. In some embodiments, the present disclosure provides technologies for assessing various technologies, e.g., compounds, compositions, or methods. Among other things, the present Example provides technologies, e.g., cell growth inhibition assay, for assessing various technologies. […] In some embodiments, the following cell growth inhibition methods are utilized to assess provided technologies.
SCLC: SCLC cell lines NCI-H1048 and NCI-H1876 were cultured in DMEM F12 media with 5% FBS, 1% Penicillin/Streptomycin and HITES supplement (Hydrocortisone, Insulin, Transferrin, Estradiol and Sodium Selenite). NCI-H1048 cells were plated at 10,000 cells/well of a 24-well plate and NCI-H1876 cells were plated at 20,000 cells/well of a 96-well plate. Compound and media were replenished every two days out to day 11 and 10 respectively. Cells were then trypsinized and counted using either hemocytometer or an automated Countess cell counter.
(§2) In some assessments, for cell growth inhibition, cells, e.g., MOLM13, NCI-H1048, and LASCPC-01 cells, were counted using a hemocytometer or automated cell counting in triplicates. In some assessments, proliferation in NEPC organoids as measured with Cell Titer Glo reagent (Promega). Growth inhibition was determined relative to vehicle control.

MOLM-13 cells = experiment: Cell growth inhibition, AML cell line MOLM-13 (CyQuant, day 7); type: cell-based; conditions: Homo sapiens, 168 h; MOLM-13, day 7, CyQuant; read-out: MOLM13 GI50
From the text: as §1
AML: AML cell line MOLM-13 cells were cultured in RPMI+15% FBS and were plated at 500 cells/well in 100 uL media in a U-bottom 96-well plate. Compounds were dilute to 3×final in full media and 50 uL were added to corresponding wells. Compound and media were replenished on days 2 and 5. On day 7, cells were transferred to a 96-well black bottom plate and CyQuant was performed per manufacturer's instructions.
as §2

KAT2A [1] = target: T1, KAT2A (Homo sapiens, UniProt Q92830); experiment: KAT2A degradation, Western Blot (Jess), NCI-H1048 cells; type: cell-based; parameters: degrader, Western blot (Jess); conditions: NCI-H1048 cells, KAT2A, 24 h, Western Blot, vs DMSO; read-out: KAT2A NCI-H1048 DC50
Procedure, shortened: (§3)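 DC50 came from protein loss relative to DMSO, measured by Jess capillary immunoblot of RIPA lysates with chemiluminescence read-out. Before lysis, NCI-H1048 cells in 5% FBS HITES medium were exposed to compound for 24 h at 37° C.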

KAT2B = KAT2B (Homo sapiens, UniProt Q92831); experiment: KAT2B degradation, Western Blot (Jess), NCI-H1048 cells; type: cell-based; parameters: degrader, Western blot (Jess); conditions: NCI-H1048 cells, KAT2B, 24 h, Western Blot, vs DMSO; read-out: KAT2B NCI-H1048 DC50
Procedure, shortened: as §3

KAT2A [2] = target: T1, KAT2A; experiment: KAT2A degradation, Western Blot (Jess), MOLM-13 cells; type: cell-based; parameters: degrader, Western blot; conditions: MOLM-13 cells, KAT2A, 24 h, Western Blot, vs DMSO; read-out: KAT2A MOLM-13 DC50
Procedure, shortened: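 MOLM-13 cells in RPMI 1640/20% FBS were treated with compound for 24 h at 37 °C. RIPA lysates (4 μg) were run on a capillary Western (Jess) with anti-KAT2A antibody and chemiluminescent detection. DC50 comes from percent protein reduction versus DMSO control.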

KAT2B, sequence (Q92831 whole entry): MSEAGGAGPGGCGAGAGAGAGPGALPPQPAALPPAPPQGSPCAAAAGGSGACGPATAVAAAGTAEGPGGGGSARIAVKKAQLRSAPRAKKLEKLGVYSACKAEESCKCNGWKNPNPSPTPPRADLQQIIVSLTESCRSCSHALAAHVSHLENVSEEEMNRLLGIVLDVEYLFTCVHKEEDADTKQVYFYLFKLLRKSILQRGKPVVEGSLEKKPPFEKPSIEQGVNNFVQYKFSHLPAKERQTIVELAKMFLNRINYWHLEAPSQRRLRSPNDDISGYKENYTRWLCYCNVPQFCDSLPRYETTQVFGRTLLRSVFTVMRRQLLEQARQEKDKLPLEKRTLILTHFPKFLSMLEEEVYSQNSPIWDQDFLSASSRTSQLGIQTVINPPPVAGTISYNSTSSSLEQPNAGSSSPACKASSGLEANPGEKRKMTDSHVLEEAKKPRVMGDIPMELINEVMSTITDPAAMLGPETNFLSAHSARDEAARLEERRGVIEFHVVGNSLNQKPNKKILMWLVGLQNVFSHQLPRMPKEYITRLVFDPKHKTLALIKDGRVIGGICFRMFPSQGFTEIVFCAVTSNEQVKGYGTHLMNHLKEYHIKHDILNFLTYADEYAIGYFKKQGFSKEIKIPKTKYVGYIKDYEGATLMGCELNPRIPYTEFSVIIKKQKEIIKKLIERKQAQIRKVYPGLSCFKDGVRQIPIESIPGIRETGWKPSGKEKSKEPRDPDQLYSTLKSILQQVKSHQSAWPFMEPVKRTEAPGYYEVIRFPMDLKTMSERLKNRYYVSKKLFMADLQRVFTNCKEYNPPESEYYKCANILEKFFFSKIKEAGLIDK
T1 sequence (Q92830 whole entry): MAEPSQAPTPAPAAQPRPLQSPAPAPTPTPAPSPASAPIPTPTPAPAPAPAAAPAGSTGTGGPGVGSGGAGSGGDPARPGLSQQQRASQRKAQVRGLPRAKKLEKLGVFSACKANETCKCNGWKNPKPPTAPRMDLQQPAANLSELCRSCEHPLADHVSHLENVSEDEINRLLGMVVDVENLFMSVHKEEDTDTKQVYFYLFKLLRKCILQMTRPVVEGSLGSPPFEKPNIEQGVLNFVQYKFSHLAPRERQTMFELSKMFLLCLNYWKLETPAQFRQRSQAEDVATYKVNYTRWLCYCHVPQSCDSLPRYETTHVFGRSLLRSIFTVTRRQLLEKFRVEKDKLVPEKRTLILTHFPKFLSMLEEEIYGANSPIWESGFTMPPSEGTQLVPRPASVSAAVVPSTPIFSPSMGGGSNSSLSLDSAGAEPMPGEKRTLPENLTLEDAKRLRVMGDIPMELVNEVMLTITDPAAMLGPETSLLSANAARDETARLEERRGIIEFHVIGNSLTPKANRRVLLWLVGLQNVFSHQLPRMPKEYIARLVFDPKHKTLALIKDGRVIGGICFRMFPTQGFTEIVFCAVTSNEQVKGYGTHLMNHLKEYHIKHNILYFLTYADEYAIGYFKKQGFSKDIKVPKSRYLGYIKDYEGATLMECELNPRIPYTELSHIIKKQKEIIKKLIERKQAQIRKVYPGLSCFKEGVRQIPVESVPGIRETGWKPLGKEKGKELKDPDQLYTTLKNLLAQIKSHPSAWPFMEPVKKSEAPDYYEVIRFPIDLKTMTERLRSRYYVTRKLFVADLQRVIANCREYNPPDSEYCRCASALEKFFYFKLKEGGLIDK

GI50 (NCI-H1048 cells) [nM]	GI50 (MOLM-13 cells) [nM]	DC50 (KAT2A [1]) [nM]	DC50 (KAT2B) [nM]	DC50 (KAT2A [2]) [nM]	SMILES
1.5	0.9	< 1	< 1	< 1	CN1C[C@H](Nc2cnn(C)c(=O)c2Br)C[C@H](c2ccc(C(=O)N3CCC4(CC3)CCN(c3ccc(C5CCC(=O)NC5=O)cc3)CC4)cc2)C1 (stereo partly drawn) [Compound 90, 3-[4-[3-[4-[(3R,5R)-5-[(5-bromo-1-methyl-6-oxo-pyridazin-4-yl)amino]-1-methyl-3-piperidyl]benzoyl]-3,9-diazaspiro[5.5]undecan-9-yl]phenyl]piperidine-2,6-dione]
	5.9	< 1	< 1	< 1	CN1C[C@H](Nc2cnn(C)c(=O)c2Br)C[C@H](c2ccc(C(=O)N3CCC4(CC3)CCN(c3ccc(C5CCC(=O)NC5=O)cc3F)CC4)cc2)C1 (stereo partly drawn) [Compound 146]
	0.9	< 1	< 1	< 1	CN1C[C@H](Nc2cnn(C)c(=O)c2Br)C[C@H](c2ccc(C(=O)N3CCC4(CC3)CCN(c3ccc(C5CCC(=O)NC5=O)c(F)c3)CC4)cc2)C1 (stereo partly drawn) [Compound 157, 3-[4-[3-[4-[(3R,5R)-5-[(5-bromo-1-methyl-6-oxo-pyridazin-4-yl)amino]-1-methyl-3-piperidyl]benzoyl]-3,9-diazaspiro[5.5]undecan-9-yl]-2-fluoro-phenyl]piperidine-2,6-dione]
	4.8	< 1	< 1	< 1	Cc1cc(N2CCC3(CCN(C(=O)c4ccc([C@H]5C[C@@H](Nc6cnn(C)c(=O)c6Br)CN(C)C5)cc4)CC3)CC2)ccc1C1CCC(=O)NC1=O (stereo partly drawn) [Compound 167]
	0.9	< 1	< 1		CN1C[C@H](Nc2cnn(C)c(=O)c2Cl)C[C@H](c2ccc(C(=O)N3CCC4(CC3)CCN(c3ccc(C5CCC(=O)NC5=O)c(F)c3)CC4)cc2)C1 (stereo partly drawn) [Compound 228, 3-[4-[3-[4-[(3R,5R)-5-[(5-chloro-1-methyl-6-oxo-pyridazin-4-yl)amino]-1-methyl-3-piperidyl]benzoyl]-3,9-diazaspiro[5.5]undecan-9-yl]-2-fluoro-phenyl]piperidine-2,6-dione]
	0.7	< 1	< 1		Cc1c(N[C@@H]2C[C@H](c3ccc(C(=O)N4CCC5(CC4)CCN(c4ccc(C6CCC(=O)NC6=O)c(F)c4)CC5)cc3)CN(C)C2)cnn(C)c1=O (stereo partly drawn) [Compound 229, 3-[4-[3-[4-[(3R,5R)-5-[(1,5-dimethyl-6-oxo-pyridazin-4-yl)amino]-1-methyl-3-piperidyl]benzoyl]-3,9-diazaspiro[5.5]undecan-9-yl]-2-fluoro-phenyl]piperidine-2,6-dione]
	5.2	< 1	1 to 30		COc1cc(N2CCC3(CCN(C(=O)c4ccc([C@H]5C[C@@H](Nc6cnn(C)c(=O)c6Cl)CN(C)C5)cc4)CC3)CC2)ccc1C1CCC(=O)NC1=O (stereo partly drawn) [Compound 232]
	5.5	< 1	1 to 30		CN1C[C@H](Nc2cnn(C)c(=O)c2Cl)C[C@H](c2ccc(C(=O)N3CCC4(CC3)CCN(c3ccc(C5CCC(=O)NC5=O)nc3)CC4)cc2)C1 (stereo partly drawn) [Compound 233]
60	20	< 1	1 to 30		COc1cc(C2CCC(=O)NC2=O)ccc1N1CCC2(CCN(C(=O)c3ccc([C@H]4C[C@@H](Nc5cnn(C)c(=O)c5Br)CN(C)C4)cc3)CC2)CC1 (stereo partly drawn) [Compound 238]
	> 100	1 to 30	> 30		Cc1cc(N2CCC3(CCN(C(=O)c4ccc([C@H]5C[C@@H](Nc6cnn(C)c(=O)c6Br)CN(C)C5)cc4)CC3)CC2)c(F)cc1C1CCC(=O)NC1=O (stereo partly drawn) [Compound 243]
	5.7	< 1	1 to 30		CN1C[C@H](Nc2cnn(C)c(=O)c2Br)C[C@H](c2ccc(C(=O)N3CCC4(CC3)CCN(c3ccc(OC5CCC(=O)NC5=O)cc3)CC4)cc2)C1 (stereo partly drawn) [Compound 363]

The remaining lines, values behind:

SMILES	GI50 (NCI-H1048 cells) [nM]	GI50 (MOLM-13 cells) [nM]	DC50 (KAT2A [1]) [nM]	DC50 (KAT2B) [nM]	DC50 (KAT2A [2]) [nM]
CN1C[C@H](Nc2cnn(C)c(=O)c2Br)C[C@H](c2ccc(C(=O)N3CCN(Cc4ccc(C(=O)Nc5ccc6c(c5)CN(C5CCC(=O)NC5=O)C6=O)cc4)CC3)cc2)C1 (stereo partly drawn) [Compound 2-15]	2	5.2			
CN1C[C@H](Nc2cnn(C)c(=O)c2Br)C[C@H](c2ccc(COc3ccc4c(c3)C(=O)N(C3CCC(=O)NC3=O)C4=O)cc2)C1 (stereo partly drawn) [Compound 39]		5.6	< 1	1 to 30	< 1
CN1C[C@H](Nc2cnn(C)c(=O)c2Br)C[C@H](c2ccc(C(=O)N3CCC(CN4CCN(c5ccc6c(c5)C(=O)N(C5CCC(=O)NC5=O)C6=O)CC4)CC3)cc2)C1 (stereo partly drawn) [Compound 40]		7.8			< 1
CN1C[C@H](Nc2cnn(C)c(=O)c2Br)C[C@H](c2ccc(CN3CCN(c4cccc([C@H]5CCC(=O)NC5=O)c4)CC3)cc2)C1 [Compound 84, 3-[3-[4-[[4-[(3R,5R)-5-[(5-bromo-1-methyl-6-oxo-pyridazin-4-yl)amino]-1-methyl-3-piperidyl]phenyl]methyl]piperazin-1-yl]phenyl]piperidine-2,6-dione]		1.1	< 1	1 to 30	< 1
CN1C[C@H](Nc2cnn(C)c(=O)c2Br)C[C@H](c2ccc(CN3CCC(Oc4ccc(C5CCC(=O)NC5=O)cc4)CC3)cc2)C1 (stereo partly drawn) [Compound 86]	11	1.7	< 1	1 to 30	< 1
CN1C[C@H](Nc2cnn(C)c(=O)c2Cl)C[C@H](c2ccc(C(=O)N3CCC4(CC3)CCN(c3ccc(C5CCC(=O)NC5=O)cc3)CC4)cc2)C1 (stereo partly drawn) [Compound 145, 3-[4-[3-[4-[(3R,5R)-5-[(5-chloro-1-methyl-6-oxo-pyridazin-4-yl)amino]-1-methyl-3-piperidyl]benzoyl]-3,9-diazaspiro[5.5]undecan-9-yl]phenyl]piperidine-2,6-dione]		1	< 1	< 1	< 1
CN1C[C@H](Nc2cnn(C)c(=O)c2Cl)C[C@H](c2ccc(C(=O)N3CCC4(CCC(c5ccc(C6CCC(=O)NC6=O)cc5F)CC4)CC3)cc2)C1 (stereo partly drawn) [Compound 231]		7.3	< 1	1 to 30	
Cc1cc(N2CCC3(CCN(C(=O)c4ccc([C@H]5C[C@@H](Nc6cnn(C)c(=O)c6Cl)CN(C)C5)cc4)CC3)CC2)c(F)cc1C1CCC(=O)NC1=O (stereo partly drawn) [Compound 242]		> 100	1 to 30	> 30	
Cc1cc(C2CCC(=O)NC2=O)ccc1N1CCC2(CCN(C(=O)c3ccc([C@H]4C[C@@H](Nc5cnn(C)c(=O)c5Cl)CN(C)C4)cc3)CC2)CC1 (stereo partly drawn) [Compound 250]		3.7	< 1	< 1	
CN1C[C@H](Nc2cnn(C)c(=O)c2Cl)C[C@H](c2ccc(C(=O)N3CCC4(CC3)CCN(c3ccc(OC5CCC(=O)NC5=O)cc3)CC4)cc2)C1 (stereo partly drawn) [Compound 362]		33.3	< 1	1 to 30	

From patent US20260306640A1, “TECHNOLOGIES TARGETING CELL STATES” (Auron Therapeutics, Inc., priority 2023, published 2026)
